Measured values taken from ChEMBL document CHEMBL1201862, “PubChem BioAssay data set” (2004).
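Grown in 96-well plates, cells were treated for 48 hours with each compound at five concentrations. Insufficient inhibition: endpoint recorded as highest concentration tested. GI50 = concentration required for 50% inhibition of growth.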 Activity calls are given as the source filed them. No stated cut-off is given here; in the data, active = GI50 up to about 1.1 µM and inactive = higher.

Key:
Test in all cases: DTP human tumour cell line panel, 48 h
[1] = system: SN12C
[2] = system: NCI-H23
[3] = system: HOP-62
[4] = system: RXF 393
[5] = system: MDA-MB-231
[6] = system: SK-MEL-5
[7] = system: NCI-H226
[8] = system: A498
[9] = system: KM12
[10] = system: UACC-62
[11] = system: NCI-H460
[12] = system: CAKI-1
[13] = system: UO-31
[14] = system: MDA-MB-435
[15] = system: UACC-257
[16] = system: HCT-116
[17] = system: SNB-19
[18] = system: OVCAR-4
[19] = system: HCT-15
[20] = system: NCI/ADR-RES

SMILES	GI50 [1]	GI50 [2]	GI50 [3]	GI50 [4]	GI50 [5]	GI50 [6]	GI50 [7]	GI50 [8]	GI50 [9]	GI50 [10]	GI50 [11]	GI50 [12]	GI50 [13]	GI50 [14]	GI50 [15]	GI50 [16]	GI50 [17]	GI50 [18]	GI50 [19]	GI50 [20]
CCCNC(=S)N/N=C(\C)c1ccc(S(=O)(=O)N(C)c2ccccc2)cc1	> 100 µM (inactive)	> 60.8 µM (inactive)	6.34 µM (inactive)	15.3 µM (inactive)	27.9 µM (inactive)	> 100 µM (inactive)	29.1 µM (inactive)	55.3 µM (inactive)	> 100 µM (inactive)	> 100 µM (inactive)	> 100 µM (inactive)	24.2 µM (inactive)	> 100 µM (inactive)	> 100 µM (inactive)	> 100 µM (inactive)	> 100 µM (inactive)	39.4 µM (inactive)	> 67.6 µM (inactive)	> 88.5 µM	> 89.3 µM (inactive)
CC(C)(C)[Si](C)(C)OCC1OC(n2ccc(=O)[nH]c2=O)C(O[Si](C)(C)C(C)(C)C)/C1=C/C#N (stereo not drawn)	3.78 µM (inactive)	5.89 µM (inactive)	12.5 µM (inactive)	2.91 µM (inactive)	8.41 µM (inactive)	3.07 µM (inactive)	16.8 µM (inactive)	10 µM (inactive)	3.66 µM (inactive)	1.07 µM (active)	4.41 µM (inactive)	8.43 µM (inactive)	4.89 µM (inactive)	3.94 µM (inactive)	7.19 µM (inactive)	3.36 µM (inactive)	31.8 µM (inactive)	> 29.2 µM (inactive)	4.9 µM	4.01 µM (inactive)
CC(=O)O[C@H]1C(=O)[C@@]2(C)[C@H]([C@H](OC(=O)c3ccncc3)[C@]3(O)C[C@H](OC(=O)[C@H](O)[C@@H](NC(=O)c4ccccc4)c4ccccc4)C(C)=C1C3(C)C)[C@]1(OC(C)=O)CO[C@@H]1C[C@@H]2O	> 16.4 µM (inactive)	12.6 µM (inactive)	> 12.4 µM (inactive)	7.01 µM (inactive)	> 20 µM (inactive)	2.3 µM (inactive)	16.1 µM (inactive)	> 15.5 µM (inactive)	2.61 µM (inactive)	2.66 µM (inactive)	9.14 µM (inactive)	> 25 µM (inactive)	> 25 µM (inactive)	0.714 µM (active)	8.3 µM (inactive)	1.1 µM (active)	4.51 µM (inactive)	> 25 µM (inactive)	> 25 µM	> 25 µM (inactive)
C=CCN1C(=O)N/C(=C\c2ccc(Cl)cc2)C1=O	> 100 µM (inactive)	> 100 µM (inactive)	> 100 µM (inactive)	> 100 µM (inactive)	> 100 µM (inactive)	> 100 µM (inactive)	> 100 µM (inactive)	22.6 µM (inactive)	> 100 µM (inactive)	97.7 µM (inactive)	> 100 µM (inactive)	> 100 µM (inactive)	–	> 100 µM (inactive)	> 100 µM (inactive)	> 100 µM (inactive)	> 100 µM (inactive)	> 100 µM (inactive)	> 100 µM	> 100 µM (inactive)
O=[N+]([O-])C1(CO)COC2(OC1)c1ccccc1-c1ccccc12	70.1 µM (inactive)	> 100 µM (inactive)	> 100 µM (inactive)	> 55.2 µM (inactive)	> 100 µM (inactive)	> 100 µM (inactive)	> 100 µM (inactive)	> 100 µM (inactive)	> 100 µM (inactive)	> 100 µM (inactive)	> 77.4 µM (inactive)	> 100 µM (inactive)	> 100 µM (inactive)	> 100 µM (inactive)	79.8 µM (inactive)	35.3 µM (inactive)	> 100 µM (inactive)	> 100 µM (inactive)	59.4 µM	> 48.3 µM (inactive)
C[C@]12CC(c3ccccc3O1)C(C(=O)Nc1nc(C34CC5CC(CC(C5)C3)C4)cs1)C(=O)N2 (stereo partly drawn)	> 100 µM (inactive)	> 100 µM (inactive)	> 100 µM (inactive)	> 100 µM (inactive)	> 100 µM (inactive)	> 100 µM (inactive)	> 100 µM (inactive)	> 100 µM (inactive)	> 100 µM (inactive)	> 100 µM (inactive)	> 100 µM (inactive)	> 100 µM (inactive)	–	> 100 µM (inactive)	> 100 µM (inactive)	98.9 µM (inactive)	> 100 µM (inactive)	> 100 µM (inactive)	> 100 µM	> 100 µM (inactive)
S=C(Nc1c2c(nc3ccccc13)CCCC2)Nc1c2c(nc3ccccc13)CCCC2	> 100 µM (inactive)	> 100 µM (inactive)	> 100 µM (inactive)	> 100 µM (inactive)	> 100 µM (inactive)	> 100 µM (inactive)	> 100 µM (inactive)	> 100 µM (inactive)	> 100 µM (inactive)	> 100 µM (inactive)	> 100 µM (inactive)	> 100 µM (inactive)	> 100 µM (inactive)	> 100 µM (inactive)	> 100 µM (inactive)	> 100 µM (inactive)	> 100 µM (inactive)	> 100 µM (inactive)	> 100 µM	> 100 µM (inactive)
